Measurements as given in patent publication EP4813463A2, “TYK2 INHIBITORS AND COMPOSITIONS AND METHODS THEREOF” (Lynk Pharmaceuticals Co. Ltd., priority 2023, dated 2024).
Converted amounts (≈) assume the structure as drawn. Like-named read-outs stand apart in the source and are kept apart here.

Experiments:
TYK2-JH2 domain = biological target: T1, TYK2-JH2 domain (Homo sapiens, UniProt P29597); test: Binding activity test for JH2 domain of TYK2 (Tb-antibody/tracer FRET); settings: for IC50: JH2 domain enzyme, 60 min at 25°C, then 4°C overnight, read-out: TYK2 JH2 Binding IC50; for JAK1/TYK2 selectivity: ratio of JAK1 JH2 to TYK2 JH2 binding IC50
T1 construct: JAK1-JH2 domain or TYK2-JH2 domain enzyme in assay buffer
Procedure, shortened: (§1)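 Competitive TR-FRET binding: compounds dispensed as an 11-point 3-fold dilution series, then Tb-labelled antibody and tracer added to the JH2 protein system. Incubated at 25°C, then overnight at 4°C; FRET signal read on Envision and IC50 (nM) derived.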

JAK1-JH2 domain = biological target: T2, JAK1-JH2 domain (Homo sapiens, UniProt P23458); test: Binding activity test for JH2 domain of JAK1 (Tb-antibody/tracer FRET); settings: JH2 domain enzyme; 60 min at 25°C, then 4°C overnight; read-out: JAK1 JH2 Binding IC50
T2 construct: JAK1-JH2 domain or TYK2-JH2 domain enzyme in assay buffer
Procedure, shortened: as §1

[1] = tested on: Ba/F3-FL-TYK2-P760L cells; test: Anti-proliferative assay in engineered Ba/F3 cells (Cell-Titer Glo, 72 h); format: cell-based; settings: 72 h compound treatment, concentration that causes 50% growth inhibition, read-out: Baf3-FL-T2P760L
Procedure, shortened: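 Ba/F3 cells carrying Tel-dimerization/JAK kinase fusion, IL-3-independent, in RPMI-1640 + 10% FBS; 9-point 3-fold dilutions from 20 µM (0.1% DMSO) added after 24 h, 72 h at 37 °C. Viability by Cell-Titer Glo ATP luminescence; % inhibition versus DMSO cells, blank-corrected, giving IC50.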

Kinetic solubility = format: physicochemical; settings: 100 mM pH 7.4 phosphate buffer, 1% DMSO, room temperature, read-out: Kinetics Solubility_PBS7.4
Method: Aliquots of 8 µL of reference and test compound stock solutions (10 mM/5 mM) are added into 792 µL of 100 mM pH 7.4 phosphate buffer. The final DMSO concentration is 1%. Sample tubes are shaken for 2 hours at 1000 rpm at room temperature. Samples are centrifuged at 12000 rpm for 10 min to precipitate un-dissolved particles. And transfer the supernatants to a new tube or plate. Add 5 µL of samples (no diluted, 10 times diluted, and 100 times diluted) and standard curve samples to 95 µL of ACN containing IS for LC-MS/MS analysis. Kinetic Solubilities Values of Exemplary Compounds

pSTAT1 = test: Phosphorylation inhibition of STAT in human whole blood (IFN-alpha stimulated, flow cytometry); format: cell-based; settings: T-cell, 20 min, IFN-alpha stimulation 20 mins, CD3 T cells, read-out: pSTAT1 inhibition in hWB (IC50)
Method: The inhibitory potential of test articles in human whole blood assay was evaluated by the method of flow cytometry.
IFN-alpha will activate JAK1 and TYK2 kinase in T cells by binding to IFN receptors, and then lead to phosphorylation of STAT1 and STAT2. The phosphorylated STAT1 enter nuclear and promote transcription and expression of IFN-gamma. To evaluate the efficacy of TYK2i in T cells, freshly collected human whole blood will be stimulated with certain unit of human IFN-alpha (Universal Type I IFN(1MU), R&D, 11200-2) for 20 mins in incubator. After stimulation, fix cells with Phosflow™ Fix Buffer I (BD, 557870), and then collect fixed cells by centrifugation (500 g, 8min). Wash cells once with pre-cooled PBS, and then permeabilize cells with cold Perm Buffer III buffer (BD, 558050) for 45 mins on ice. Collect cells by centrifugation (600 g, 8min) and washed twice with cold PBS. Stain cells with anti-human CD3(FITC Mouse Anti-Human CD3, BD, 555332) and anti-pSTAT1_Y701(Alexa Fluor 647 Mouse Anti-Stat1 (pY701), BD, 612597) antibodies. Detect pSTAT1 by flow cytometry (CytoFlex S) and analyze data with FlowJo and GraphPad Prism 8 software. IC50 values of test articles were determined using 4- parameter logistic equation.

[2] = Microsomal metabolic stability assay; format: in vitro ADME; settings: human, liver microsomes, pH 7.4, 0.5 mg/mL microsomal protein, 1 µM test article, 2 mM NADPH; for microsomal CLint at 1 µM: read-out: Human LM Clint; for half-life at 1 µM: read-out: Human LM T1/2
Method: Microsomes were pre-incubated with test compound or control compounds for 5 min at 37°C in 100 mM potassium phosphate buffer, pH 7.4, 1.0 mM EDTA. The reaction was initiated by addition of 15 µL of the NADPH regenerating system to 30 µL of each incubation mixture per time point. The final incubation condition was composed of 0.5 mg/mL microsomal protein, 1 µM test article/positive control, 2 mM NADPH. The 0-minute samples were prepared by addition of a 30 µL aliquot of each incubation mixture to 135 µL quench reagent to precipitate proteins. And then a 15 µL aliquot of the NADPH regenerating system was added. At 5, 15, 30 and 45 minutes, the reaction will be stopped by the addition of cold acetonitrile solution containing internal standard. The samples taken at all time points were centrifuged at 5000×g for 15 minutes. 50 µL of supernatant are taken into 96-well assay plates pre-added with 50 µL ultrapure water, and then analyzed by LC/MS/MS.
Concentrations of test articles, control compounds in the samples were determined by using LC/MS/MS method. Plotting of the chromatograms and peak area integrations are carried out by Analyst (AB Sciex).
In the determination of the in vitro elimination constant (ke) of the control compounds, the analyte/internal standard peak area ratios will be converted to percentage remaining (%Remaining) with the following equation: %Remaining = (Peak area ratio of analyte to IS at each time point)/(Peak area ratio of analyte to IS at t = 0) × 100% [formula]
The CLint of microsomes was calculated using the formula: CLint (mic)=0.693/T1/2 /mg microsome protein per mL. The slope was measured by the natural logarithm of the percentage of the residual compound and time, T1/2 was calculated according to the following formula. T = (0.693)/(−slope) [formula]

[3] = phosphate buffer, pH 7.4, aqueous buffer, kinetic from dmso stock

T2 sequence (P23458 583-855 limits assumed): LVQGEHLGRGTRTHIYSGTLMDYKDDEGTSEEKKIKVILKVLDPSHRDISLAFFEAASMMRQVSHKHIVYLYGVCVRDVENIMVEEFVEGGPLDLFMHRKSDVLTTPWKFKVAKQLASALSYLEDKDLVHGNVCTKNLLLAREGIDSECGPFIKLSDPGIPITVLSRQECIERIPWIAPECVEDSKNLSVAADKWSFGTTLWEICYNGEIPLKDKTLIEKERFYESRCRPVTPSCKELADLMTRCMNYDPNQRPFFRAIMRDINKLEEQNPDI
T1 sequence (P29597 589-875 limits assumed): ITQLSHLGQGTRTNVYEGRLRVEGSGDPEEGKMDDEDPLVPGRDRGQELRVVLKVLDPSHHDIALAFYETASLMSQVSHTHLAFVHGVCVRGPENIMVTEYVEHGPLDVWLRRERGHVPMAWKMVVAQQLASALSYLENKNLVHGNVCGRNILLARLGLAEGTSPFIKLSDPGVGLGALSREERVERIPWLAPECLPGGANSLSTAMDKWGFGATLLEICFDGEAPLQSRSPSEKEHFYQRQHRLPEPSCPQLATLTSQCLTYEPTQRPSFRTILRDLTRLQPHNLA

Row | Structure (SMILES) | IC50 (TYK2-JH2 domain) | JAK1/TYK2 selectivity (TYK2-JH2 domain) | IC50 (JAK1-JH2 domain) | IC50 [1] | solubility kinetic at 2 h (Kinetic solubility) | solubility kinetic at 2 h (Kinetic solubility; [3]) | IC50 ([1]; Mus musculus, BaF3, 72 h) | IC50 (pSTAT1) | microsomal CLint at 1 µM [2] | half-life at 1 µM [2]
1 | [2H]C([2H])([2H])NC(=O)c1cnc(NC(=O)C2CC2)cc1Nc1cnn2ccc(C(C)C(F)(F)F)c(OC)c12 (single isomer, unassigned) [Example 9A, (R*) -6-(cyclopropanecarboxamido)-4-((4-methoxy-5-(1,1,1-trifluoropropan-2-yl)pyrazolo[1,5-a]pyridin-3-yl)amino)-N-(methyl-d3)nicotinamide] | 0.424 nM | 91.9 | 39 nM | 2140 nM | 35.80 µM (≈ 17.2 µg/mL) | – | – | – | – | –
2 | [2H]C([2H])([2H])NC(=O)c1cnc(NC(=O)C2CC2)cc1Nc1cnn2ccc(C(C)C(F)(F)F)c(OC)c12 (stereo not drawn) [Example 9, 6-(Cyclopropanecarboxamido)-4-((4-methoxy-5-(1,1,1-trifluoropropan-2-yl)pyrazolo[1,5-a]pyridin-3-yl)amino)-N-(methyl-d3)nicotinamide] | 0.158 nM | 55.4 | 8.76 nM | 51.6 nM | – | 60 µM (≈ 28.8 µg/mL) | – | – | – | –
3 | [2H]C([2H])([2H])NC(=O)c1cnc(NC(=O)C2CC2)cc1Nc1cnn2ccc(C#N)c(OC)c12 [Example 12, 4-((5-Cyano-4-methoxypyrazolo[1,5-a]pyridin-3-yl)amino)-6-(cyclopropanecarboxamido)-N-(methyl-d3)nicotinamide] | 0.308 nM | 68.5 | 21.1 nM | – | – | 15.1 µM (≈ 6.18 µg/mL) | 194 nM | – | – | –
4 | [2H]C([2H])([2H])NC(=O)c1cnc(NC(=O)C2CC2)cc1Nc1cnn2ccc(CC#N)c(OC)c12 [Example 18, 4-((5-(Cyanomethyl)-4-methoxypyrazolo[1,5-a]pyridin-3-yl)amino)-6-(cyclopropanecarboxamido)-N-(methyl-d3)nicotinamide] | 0.13 nM | 12.5 | 1.63 nM | – | – | – | 90.3 nM | 84.3 nM | – | –
5 | [2H]C([2H])([2H])NC(=O)c1cnc(NC(=O)C2(F)CC2)cc1Nc1cnn2ccc([C@H](O)C(F)(F)F)c(OC)c12 [Example 19, (S)-6-(1-fluorocyclopropane-1-carboxamido)-4-((4-methoxy-5-(2,2,2-trifluoro-1-hydroxyethyl)pyrazolo[1,5-a]pyridin-3-yl)amino)-N-(methyl-d3)nicotinamide] | 0.273 nM | 1011.9 | 276 nM | – | – | 22.7 µM (≈ 11.3 µg/mL) | 137 nM | – | – | –
6 | [2H]C([2H])([2H])NC(=O)c1cnc(NC(=O)C2CC2)cc1Nc1cnn2ccc(CC(C)(F)F)c(OC)c12 [Example 20, 6-(Cyclopropanecarboxamido)-4-((5-(2,2-difluoropropyl)-4-methoxypyrazolo[1,5-a]pyridin-3-yl)amino)-N-(methyl-d3)nicotinamide] | 0.058 nM | 235.2 | 13.6 nM | – | – | 15 µM (≈ 6.92 µg/mL) | 23.1 nM | – | – | –
7 | [2H]C([2H])([2H])NC(=O)c1cnc(NC(=O)C2CC2)cc1Nc1cnn2ccc(CO)c(OC)c12 [Example 22, 6-(Cyclopropanecarboxamido)-4-((5-(hydroxymethyl)-4-methoxypyrazolo[1,5-a]pyridin-3-yl)amino)-N-(methyl-d3)nicotinamide] | 0.185 nM | 40.6 | 7.5 nM | – | – | – | 127 nM | 80.8 nM | 4.5 µL/min/mg | 5.13 h
8 | [2H]C([2H])([2H])NC(=O)c1cnc(NC(=O)C2CC23CC3)cc1Nc1cnn2ccc([C@H](O)C(F)(F)F)c(OC)c12 (stereo partly drawn) [Example 32, 4-((4-Methoxy-5-((S)-2,2,2-trifluoro-1-hydroxyethyl)pyrazolo[1,5-a]pyridin-3-yl)amino)-N-(methyl-d3)-6-(spiro[2.2]pentane-1-carboxamido)nicotinamide] | 0.171 nM | 137.2 | 23.5 nM | – | – | 62.2 µM (≈ 31.6 µg/mL) | 42.3 nM | – | – | –
9 | [2H]C([2H])([2H])NC(=O)c1nnc(NC(=O)C2CC2)cc1Nc1nn(C)c2ccc([C@H](OC)C(F)(F)F)c(OC)c12 [Example 51B, (S)-6-(cyclopropanecarboxamido)-4-((4-methoxy-1-methyl-5-(2,2,2-trifluoro-1-methoxyethyl)-1H-indazol-3-yl)amino)-N-(methyl-d3)pyridazine-3-carboxamide] | 0.171 nM | 7.43 | 1.27 nM | – | – | – | 0.399 nM | 76.5 nM | 8.06 µL/min/mg | 2.87 h
10 | CNC(=O)c1nnc(NC(=O)C2CC2)cc1Nc1nc2ccc(N3CC(OC)C3)cn2n1 [Example 188, 6-(Cyclopropanecarboxamido)-4-((6-(3-methoxyazetidin-1-yl)-[1,2,4]triazolo[1,5-a]pyridin-2-yl)amino)-N-methylpyridazine-3-carboxamide, reference compound] | – | – | – | – | – | 1.01 µM (≈ 0.442 µg/mL) | – | – | – | –
11 | [2H]C([2H])([2H])NC(=O)c1cnc(NC(=O)[C@@H]2C[C@@H]2F)cc1Nc1nn(C)c2ccc([C@H](OC([2H])([2H])[2H])C(F)(F)F)c(OC)c12 [Example 192, 6-((1S,2S)-2-Fluorocyclopropane-1-carboxamido)-4-((4-methoxy-1-methyl-5-((S)-2,2,2-trifluoro-1-(methoxy-d3)ethyl)-1H-indazol-3-yl)amino)-N-(methyl-d3)nicotinamide] | 0.075 nM | 35.08 | 2.63 nM | – | – | – | 0.088 nM | 24.6 nM | – | –
12 | [2H]C([2H])([2H])NC(=O)c1nnc(NC(=O)C2CC2)cc1Nc1ncn2cccc2c1OC [Example 198, 6-(Cyclopropanecarboxamido)-4-((4-methoxypyrrolo[1,2-c]pyrimidin-3-yl)amino)-N-(methyl-d3)pyridazine-3-carboxamide, reference compound] | 1.48 nM | 7.0 | 10.4 nM | – | – | – | 260 nM | 1470 nM | – | –
